Results from patent publication US8084466B2, “Bicyclic heteroaryl-substituted imidazoles as modulators of the histamine H4 receptor” (Janssen Pharmaceutica NV, priority 2007, dated 2011).

biological target: T1, human histamine H4 receptor (Homo sapiens, UniProt Q9H3N8); experiment: Binding Assay on Recombinant Human Histamine H4 Receptor; conditions: competition binding with 3H-histamine (5 nM; KD 5 nM), membranes of SK-N-MC or COS7 cells expressing human H4 receptor; average of results; > = highest value tested
T1 construct: expressed in transfected cells; host or cells: SK-N-MC cells or COS7 cells, transient transfection with pH4R; cell membranes
Procedure: Biological Methods: Binding Assay on Recombinant Human Histamine H4 Receptor
SK-N-MC cells or COS7 cells were transiently transfected with pH4R and grown in 150 cm^2 tissue culture dishes. Cells were washed with saline solution, scraped with a cell scraper and collected by centrifugation (1000 rpm, 5 min). Cell membranes were prepared by homogenization of the cell pellet in 20 mM Tris-HCl with a polytron tissue homogenizer for 10 sec at high speed. Homogenate was centrifuged at 1000 rpm for 5 min at 4° C. The supernatant was then collected and centrifuged at 20,000×g for 25 min at 4° C. The final pellet was resuspended in 50 mM Tris-HCl. Cell membranes were incubated with ^3H-histamine (5-70 nM) in the presence or absence of excess histamine (10,000 nM). Incubation occurred at room temperature for […]. Membranes were harvested by rapid filtration over Whatman GF/C filters and washed 4 times with ice-cold 50 mM Tris HCl. Filters were then dried, mixed with scintillant and counted for radioactivity. SK-N-MC or COS7 cells expressing human histamine H4 receptor were used to measure the affinity of binding of other compounds and their ability to displace ^3H-ligand binding by incubating the above-described reaction in the presence of various concentrations of inhibitor or compound to be tested. For competition binding studies using ^3H-histamine, Ki values were calculated, based on an experimentally determined KD value of 5 nM and a ligand concentration of 5 nM, according to Y.-C.

T1 sequence (Q9H3N8 whole entry): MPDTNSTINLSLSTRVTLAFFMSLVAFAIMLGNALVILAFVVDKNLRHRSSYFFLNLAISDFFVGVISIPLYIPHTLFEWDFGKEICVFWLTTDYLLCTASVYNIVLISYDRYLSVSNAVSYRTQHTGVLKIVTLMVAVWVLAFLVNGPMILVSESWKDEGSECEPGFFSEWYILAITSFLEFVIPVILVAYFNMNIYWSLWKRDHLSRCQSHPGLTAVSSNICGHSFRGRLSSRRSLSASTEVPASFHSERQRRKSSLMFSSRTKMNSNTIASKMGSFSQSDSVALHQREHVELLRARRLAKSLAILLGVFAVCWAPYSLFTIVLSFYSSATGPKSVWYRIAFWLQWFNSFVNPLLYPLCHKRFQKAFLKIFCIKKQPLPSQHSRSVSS

Compound | Ki [nM]
Cc1c(F)ccc2[nH]c(-c3cnc4c(ccn4CCCC4CCN(C)CC4)c3)nc12 [Example 46, 5-Fluoro-4-methyl-2-{1-[3-(1-methyl-piperidin-4-yl)-propyl]-1H-pyrrolo[2,3-b]pyridin-5-yl}-1H-benzoimidazole] | 12
Cc1cccc2[nH]c(-c3cccc4c3ccn4CCCCC3CCNCC3)nc12 [Example 66, 4-Methyl-2-[1-(4-piperidin-4-yl-butyl)-1H-indol-4-yl]-1H-benzoimidazole] | 1180
COC(=O)c1ccc2nc(-c3cccc4c3c(Cl)cn4CCCCC3CCN(C)CC3)[nH]c2c1 [Example 137, 2-{3-Chloro-1-[4-(1-methyl-piperidin-4-yl)-butyl]-1H-indol-4-yl}-3H-benzoimidazole-5-carboxylic acid methyl ester] | 2880
Cc1cccc2[nH]c(-c3ccc4c(ncn4CCCC4CCN(C)CC4)c3C)nc12 [Example 53, 4,4′-Dimethyl-1′-[3-(1-methyl-piperidin-4-yl)-propyl]-1H,1′H-[2,5′]bibenzoimidazolyl] | 15
Cc1c(F)ccc2[nH]c(-c3cccc4c3c(Cl)cn4CCCCC3CCN(C)CC3)nc12 [Example 31, 2-{3-Chloro-1-[4-(1-methyl-piperidin-4-yl)-butyl]-1H-indol-4-yl}-5-fluoro-4-methyl-1H-benzoimidazole] | 118
CN1CCC(CCCN2CCc3cc(-c4nc5cc(Cl)ccc5[nH]4)ccc32)CC1 [Example 97, 5-Chloro-2-{1-[3-(1-methyl-piperidin-4-yl)-propyl]-2,3-dihydro-1H-indol-5-yl}-1H-benzoimidazole] | 43
Cc1c(F)ccc2[nH]c(-c3ccc4ncn(CCCC5CCN(C)CC5)c4c3)nc12 [Example 41, 5-Fluoro-4-methyl-3′-[3-(1-methyl-piperidin-4-yl)-propyl]-1H,3′H-[2,5′]bibenzoimidazolyl] | 397
Cc1cc(C)c2nc(-c3ccc4c(c3)c(C)c(C)n4CCCC3CCN(C)CC3)[nH]c2c1 [Example 14, 2-{2,3-Dimethyl-1-[3-(1-methyl-piperidin-4-yl)-propyl]-1H-indol-5-yl}-4,6-dimethyl-1H-benzoimidazole] | 84
CN1CCC(CCCCn2ccc3c(-c4nc5cc(F)c(F)cc5[nH]4)cccc32)CC1 [Example 67, 5,6-Difluoro-2-{1-[4-(1-methyl-piperidin-4-yl)-butyl]-1H-indol-4-yl}-1H-1 5 benzoimidazole] | 184
CN1CCC(CCCn2cc(Cl)c3cc(-c4nc5cc(C(C)(C)C)ccc5[nH]4)ccc32)CC1 [Example 28, 5-tert-Butyl-2-{3-chloro-1-[3-(1-methyl-piperidin-4-yl)-propyl]-1H-indol-5-yl}-1H-benzoimidazole] | 349
Cc1cccc2[nH]c(-c3ccc4ccn(CCCCC5CCN(C)CC5)c4c3)nc12 [Example 27, 4-Methyl-2-{1-[4-(1-methyl-piperidin-4-yl)-butyl]-1H-indol-6-yl}-1H-benzoimidazole] | 750
Cc1c(F)ccc2[nH]c(-c3cc4ccn(CCCC5CCN(C)CC5)c4cc3Cl)nc12 [Example 50, 2-{6-Chloro-1-[3-(1-methyl-piperidin-4-yl)-propyl]-1H-indol-5-yl}-5-fluoro-4-methyl-1H-benzoimidazole] | 3330
CN1CCC(CCCCn2cc(Cl)c3c(-c4nc5cc(C(F)(F)F)ccc5[nH]4)cccc32)CC1 [Example 30, 2-{3-Chloro-1-[4-(1-methyl-piperidin-4-yl)-butyl]-1H-indol-4-yl}-5-trifluoromethyl-1H-benzoimidazole] | 47
Clc1ccc2[nH]c(-c3ccc4c(ccn4CCCN4CCNCC4)c3)nc2c1 [Example 64, 5-Chloro-2-[1-(3-piperazin-1-yl-propyl)-1H-indol-5-yl]-1H-benzoimidazole] | 1520
Cc1ccc2[nH]c(-c3ccc4ncn(CCCCC5CCN(C)CC5)c4c3)nc2c1C [Example 125, 4,5-Dimethyl-3′-[4-(1-methyl-piperidin-4-yl)-butyl]-1H,3′H-[2,5′]bibenzoimidazolyl] | 2670
Cc1ccc2[nH]c(-c3cccc4c3ccn4CCCCC3CCN(C)CC3)nc2c1C [Example 78, 4,5-Dimethyl-2-{1-[4-(1-methyl-piperidin-4-yl)-butyl]-1H-indol-4-yl}-1H-benzoimidazole] | 154
Cc1c(F)ccc2[nH]c(-c3ccc4c(ccn4CCCN4CCN(C)CC4)c3)nc12 [Example 13, 5-Fluoro-4-methyl-2-{1-[3-(4-methyl-piperazin-1-yl)-propyl]-1H-indol-5-yl}-1H-benzoimidazole] | 168
Cc1cc(C)c2nc(-c3ccc4c(c3C)CCN4CCCC3CCN(C)CC3)[nH]c2c1 [Example 57, 4,6-Dimethyl-2-{4-methyl-1-[3-(1-methyl-piperidin-4-yl)-propyl]-2,3-dihydro-1H-indol-5-yl}-1H-benzoimidazole] | 5
CC(C)(C)c1ccc2[nH]c(-c3ccc4ccn(CCCCC5CCNCC5)c4c3)nc2c1 [Example 109, 5-tert-Butyl-2-[1-(4-piperidin-4-yl-butyl)-1H-indol-6-yl]-1H-benzoimidazole] | 2670
Cc1cccc2[nH]c(-c3ccc4c(c3)CCN4CCCC3CCNCC3)nc12 [Example 95, 4-Methyl-2-[1-(3-piperidin-4-yl-propyl)-2,3-dihydro-1H-indol-5-yl]-1H-benzoimidazole] | 390
Cc1c(-c2nc3cc(Cl)ccc3[nH]2)ccc2c1CCN2CCCC1CCN(C)CC1 [Example 58, 5-Chloro-2-{4-methyl-1-[3-(1-methyl-piperidin-4-yl)-propyl]-2,3-dihydro-1H-indol-5-yl}-1H-benzoimidazole] | 19
Cc1c(F)ccc2[nH]c(-c3ccc4ccn(CCCCC5CCN(C)CC5)c4c3)nc12 [Example 26, 5-Fluoro-4-methyl-2-{1-[4-(1-methyl-piperidin-4-yl)-butyl]-1H-indol-6-yl}-1H-benzoimidazole] | 880
Cc1ccc2[nH]c(-c3ccc4c(c3C)CCN4CCCC3CCN(C)CC3)nc2c1C [Example 2, 4,5-Dimethyl-2-{4-methyl-1-[3-(1-methyl-piperidin-4-yl)-propyl]-2,3-dihydro-1H-indol-5-yl}-1H-benzoimidazole] | 15
CN1CCC(CCCCn2ccc3c(-c4nc5cc(F)ccc5[nH]4)cccc32)CC1 [Example 69, 5-Fluoro-2-{1-[4-(1-methyl-piperidin-4-yl)-butyl]-1H-indol-4-yl}-1H-benzoimidazole] | 325
Cc1nc2ccc3nc(-c4cccc5c4c(Cl)cn5CCCCC4CCN(C)CC4)[nH]c3c2s1 [Example 136, 7-{3-Chloro-1-[4-(1-methyl-piperidin-4-yl)-butyl]-1H-indol-4-yl}-2-methyl-8H-imidazo[4′,5′:3,4]benzo[1,2-d]thiazole] | 941
CN1CCN(CCCn2ccc3cc(-c4nc5cc(Cl)ccc5[nH]4)ccc32)CC1 [Example 65, 5-Chloro-2-{1-[3-(4-methyl-piperazin-1-yl)-propyl]-1H-indol-5-yl}-1H-benzoimidazole] | 145
CN1CCC(CCCn2ccc3cc(-c4nc5cc(Cl)ccc5[nH]4)c(Cl)cc32)CC1 [Example 102, 5-Chloro-2-{6-chloro-1-[3-(1-methyl-piperidin-4-yl)-propyl]-1H-indol-5-yl}-1H-benzoimidazole] | > 10000
Cc1c(C)n(CCCC2CCNCC2)c2ccc(-c3nc4c(C)c(F)ccc4[nH]3)cc12 [Example 90, 2-[2,3-Dimethyl-1-(3-piperidin-4-yl-propyl)-1H-indol-5-yl]-5-fluoro-4-methyl-1H-benzoimidazole] | 2000
